Source: patent publication US20200054587A1, “METHODS AND MATERIALS FOR REDUCING SCARRING ASSOCIATED WITH ARTHROFIBROSIS OR TENDON INJURY” (Mayo Foundation for Medical Education and Research, priority 2018, published 2020)
Like-named read-outs stand apart in the source and are kept apart here.

What was measured:
[1] = cited from earlier work
knee arthrofibrosis = experiment: Rabbit knee arthrofibrosis model, passive range of motion; format: in vivo; conditions: 50 mg in gel injected into the joint capsule during surgery
Description: (§1) All rabbits underwent luxation (hyperextension) and arthrodesis (fixation) of the operative knee. […] After eight weeks, the arthrodesis was reversed. Rabbits were allowed to roam free in individual spaces (1 m^2) for the entire 24 week duration. Angles of passive extension of operative and contralateral, non-operative limbs were measured at 8, 10, 16, and 24 weeks, using a validated dynamic load cell device. Rabbits were sacrificed at 24 weeks and samples of the posterior capsule were taking from the operative and contralateral, non-operative knee. Data from mRNA extraction and qPCR were obtained to analyze expression of alpha-1 collagen (COL1A1, COL2A1 and COL5A1) and alpha smooth muscle actin (ACTA2), all of which are involved in fibrosis.

ACTA2 = experiment: qPCR of alpha smooth muscle actin gene in posterior capsule tissue, rabbit knee arthrofibrosis model; format: in vivo; conditions: rabbit posterior capsule tissue at 24 weeks, FIG. 3B
Description: as §1

[2] = test system: COL1A1, COL2A1 and COL5A1; experiment: qPCR of collagen genes in posterior capsule tissue, rabbit knee arthrofibrosis model; format: in vivo; conditions: rabbit posterior capsule tissue at 24 weeks, FIG. 3A
Description: as §1

flexor tendon injury = experiment: In vivo turkey flexor tendon injury model; conditions: 50 mg powder applied to repaired tendon, 6 weeks
Source text: Flexor tendon injuries are common and pose a clinical challenge for functional restoration. Postoperative repair rupture and scar formation results in prolonged work disability for patients. […] Twelve male turkeys underwent surgical flexor tendon cut and repair. […] After sacrifice, digits were collected and analyzed for adhesion formation as well as healing at the macrolevel.

[3] = test system: adipose tissue-derived mesenchymal stem cells (aMSC); experiment: Live/dead cytotoxicity staining (Calcein AM / Ethidium Homdimer-1); conditions: after initial exposure, absence of any dead-cell staining, FIG. 1B

| SMILES | solubility ([1]; acetone) | solubility ([1]; alcohol) | solubility ([1]; chloroform) | solubility ([1]; ether) | solubility ([1]; glycerin) | solubility ([1]; water) | passive range of motion (ROM), pentamidine vs control rabbits (knee arthrofibrosis; 24 weeks, p=0.0082) | passive range of motion (ROM), pentamidine vs control rabbits (knee arthrofibrosis; eight weeks, p=0.0303) | ACTA2 gene expression vs control tissue (ACTA2) | collagen (COL1A1, COL2A1 and COL5A1) expression vs control tissue [2] | post-operative scar formation (gross anatomy) vs control (flexor tendon injury) | adhesion score, 0 (no adhesion) to 8 (very severe) (flexor tendon injury; all six treated turkeys, FIG. 4) | cytotoxic effect (Ethidium Homdimer-1 staining) [3] |
| --- | --- | --- | --- | --- | --- | --- | --- | --- | --- | --- | --- | --- | --- |
| N=C(N)c1ccc(OCCCCCOc2ccc(C(=N)N)cc2)cc1 [Pentamidine isethionate, 4,4-[1,5-pentanediylbis(oxy)]bis-benzenecarboximidamid] | insoluble | soluble | insoluble | insoluble | soluble | soluble |  |  |  |  |  |  |  |
| N=C(N)c1ccc(OCCCCCOc2ccc(C(=N)N)cc2)cc1 [pentamidine, 4,4′-[pentane-1,5-diylbis(oxy)]dibenzenecarboximid-amide] |  |  |  |  |  |  | statistically significant difference | statistically significant difference | decreased | decreased | marked reduction | significantly reduced | no cytotoxic effect |
